Data from US20210395295A1, “INHIBITORS OF GLUCOCORTICOID RECEPTOR” (ORIC Pharmaceuticals, Inc., priority 2015, published 2021).

Columns and labels:
AR = test: In vitro AR agonism assay in LNAR reporter cell line; assay type: cell-based; conditions: for Relative Maximum Response to Mifepristone: LNAR cells (overexpressed AR, 4xARE-Luc), RPMI + 10% CSS, Mifepristone maximum response set to 1
Protocol: Example 5: In Vitro AR Agonisin Assay
The AR agonism assay was done in the LNAR reporter cell line which has overexpressed AR and 4×ARE-Luc genes. This cell line is sensitive to even minor partial AR agonism activity in hormone-deprived media (CSS). The assays were done in RPMI (without phenol red) +10% CSS using 6000 LNAR cells/well in 384-well plates and compounds were incubated with cells in […] incubator for 8-24 hrs. OneGlo reagent (25 uL/well) was added and plates were read with luminometer within 3 minutes.
To gauge the AR partial agonism activity, Mifepristone is included as a standard in the assay. AR agonism assay results are quantified by determining the ratio of the maximum response of individual compounds to the maximum response of Mifepristone (arbitrarily set to 1). Values of Table 4 are reported as Relative Maximum Response to Mifepristone. This general trend of AR agonism was shown for the class of compounds described herein.

GR = target: T1, GR (Homo sapiens, UniProt P04150); test: In vitro GR luciferase reporter assay (antagonist mode); assay type: cell-based; conditions: CHO-K1-GR-MMTV-Luc reporter cells, 10 nM dexamethasone, 18-24 hours
T1 construct: expressed in transfected cells; host or cells: CHO-K1 (Chinese hamster ovary) reporter cells carrying GR and MMTV-Luc
T1 sequence (P04150 1-777): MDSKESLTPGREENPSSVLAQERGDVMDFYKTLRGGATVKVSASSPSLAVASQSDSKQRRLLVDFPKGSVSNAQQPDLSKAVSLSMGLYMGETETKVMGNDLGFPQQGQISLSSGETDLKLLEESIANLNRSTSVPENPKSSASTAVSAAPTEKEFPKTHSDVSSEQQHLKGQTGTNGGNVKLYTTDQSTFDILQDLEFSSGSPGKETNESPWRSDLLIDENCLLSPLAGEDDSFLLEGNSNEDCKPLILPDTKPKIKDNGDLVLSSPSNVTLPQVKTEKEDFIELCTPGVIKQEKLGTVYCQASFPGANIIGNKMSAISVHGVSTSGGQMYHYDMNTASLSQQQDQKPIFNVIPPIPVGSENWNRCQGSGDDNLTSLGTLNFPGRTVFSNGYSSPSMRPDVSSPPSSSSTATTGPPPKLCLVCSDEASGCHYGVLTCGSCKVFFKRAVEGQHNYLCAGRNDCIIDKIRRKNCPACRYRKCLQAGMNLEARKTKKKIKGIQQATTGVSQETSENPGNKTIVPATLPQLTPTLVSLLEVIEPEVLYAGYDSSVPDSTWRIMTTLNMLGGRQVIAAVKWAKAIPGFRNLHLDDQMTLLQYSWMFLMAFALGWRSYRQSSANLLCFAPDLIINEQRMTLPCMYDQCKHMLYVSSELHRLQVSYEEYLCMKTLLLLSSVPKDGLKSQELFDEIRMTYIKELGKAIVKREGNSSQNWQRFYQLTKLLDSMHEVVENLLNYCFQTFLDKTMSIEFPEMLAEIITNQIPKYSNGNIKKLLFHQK
Source text: Example 4: In Vitro GR Luciferase Reporter Assay
• Cell Line: CIH-K1-GR-MMTV-Luc reporter cells • Culture Media: DMEM (with phenol red) +10% FBS • Assay Media: DMEM (without phenol red) +10% CSS
Culture CHO-K1-GR-MMTV-Luc reporter cells in 15 cm plates in Culture Media at conditions less than 90% confluence.
Prepare 200× DMSO 1:5 serial dilutions of control and test compounds in 96-well non-sterile V bottom plate in DMSO, 8 serial dilutions for each compound.
Prepare 5× Assay Media diluted compound serial dilutions in 96-well non-sterile V bottom plate: Add 97.5 uL/well of Assay Media into 96-well then add 2.5 ul of 200× concentration of compounds and mix well.
Seed cells for Antagonist Assay: 1.5×10^6 CHO-K1-GR-MMTV-Luc reporter cells were seeded in a Corning 3707 flat clear bottom 384-well white TC plate in 20 ul of Assay Media containing 12.5 nM Dexamethasone (final concentration=10nM). […]
Read plates: Equilibrate appropriate amount of Promega OneGlo luciferase reagent to room temperature. Remove the plates from incubator and add 25 uL of OneGlo reagent/well by multiple channel pipette and read the plates with Tecan F500 luminometer within 3 minutes.
The ability of the compounds disclosed herein to inhibit GR activity was quantified and the respective IC50 value was determined. […]

IC50 (GR) [nM]	Compound	Relative Maximum Response to Mifepristone (AR)	further results
–	CC#C[C@]1(O)CC[C@H]2[C@@H]3CCC4=CC(=O)CCC4=C3[C@@H](c3ccc(N(C)C)cc3)C[C@@]21C [Mifepristone, reference compound]	–	concentration showing strong partial AR agonism (AR; LNAR reporter cells, hormone-deprived media (CSS)): ≥ 10 nM
≤ 100	[2H]C([2H])([2H])C#C[C@]1(O)[C@H](C)C[C@H]2[C@@H]3CCC4=CC(=O)CCC4=C3[C@@H](c3cc(F)c(C)c(F)c3)C[C@@]21C	–	–
–	CC(C)C#C[C@]1(O)CC[C@H]2[C@@H]3CCC4=CC(=O)CCC4=C3[C@@H](c3ccc(N(C)C)c(F)c3)C[C@@]21C	A (A: ≤0.4)	–
> 100	Cc1ccc([C@H]2C[C@@]3(C)[C@@H](CC[C@@]3(O)C#CC(C)(F)F)[C@@H]3CCC4=CC(=O)CCC4=C32)cc1F	–	–
–	CN(C)c1ccc([C@H]2C[C@@]3(C)[C@@H](CC[C@@]3(O)C#CC(C)(C)C)[C@@H]3CCC4=CC(=O)CCC4=C32)cc1	A (A: ≤0.4)	–
